From ChEMBL document CHEMBL3885881, “DrugMatrix”

Species: Rattus norvegicus
Assay: DrugMatrix - Regimen: Daily Repeat
Format: toxicity, organism-based, Sprague-Dawley
Design: regimen Daily Repeat, gender Male, age 6-8 weeks
Settings: in vivo, po, route oral GAVAGE, vehicle 100 % WATER; for ABSOLUTE BASOPHIL / ABSOLUTE EOSINOPHIL / ABSOLUTE LYMPHOCYTE / ABSOLUTE MONOCYTE / ABSOLUTE SEGMENTED NEUTROPHIL / BASOPHIL / EOSINOPHIL / ERYTHROCYTE COUNT / HEMATOCRIT / HEMOGLOBIN / LEUKOCYTE COUNT / LYMPHOCYTE / MEAN CORPUSCULAR HEMOGLOBIN / MEAN CORPUSCULAR HEMOGLOBIN CONCENTRATION / MEAN CORPUSCULAR VOLUME / MONOCYTE / NEUTROPHIL / NUCLEATED RED BLOOD CELLS / PLATELET COUNT: tissue Blood; for ALANINE AMINOTRANSFERASE / ALBUMIN / ALKALINE PHOSPHATASE / ASPARTATE AMINOTRANSFERASE / BLOOD UREA NITROGEN / CARBON DIOXIDE / CHLORIDE / CHOLESTEROL / CREATINE PHOSPHOKINASE / CREATININE / GLUCOSE / LACTATE DEHYDROGENASE / LIPASE / PHOSPHORUS / POTASSIUM / SODIUM / TOTAL BILIRUBIN / TOTAL PROTEIN / URIC ACID: tissue Plasma
[1] = 0 mg/kg, 72 h, dose level Control, time 3 day
[2] = 0 mg/kg, 120 h, dose level Control, time 5 day
[3] = 100 mg/kg, 72 h, dose level Low, time 3 day

## NC(=O)c1cccnc1 [NIACINAMIDE]
[1]
  ABSOLUTE BASOPHIL: 0 CELLS/uL
  ABSOLUTE EOSINOPHIL: 46 CELLS/uL
  ABSOLUTE LYMPHOCYTE: 10225.67 CELLS/uL
  ABSOLUTE MONOCYTE: 319.33 CELLS/uL
  ABSOLUTE SEGMENTED NEUTROPHIL: 1242.33 CELLS/uL
  BASOPHIL: 0%
  EOSINOPHIL: 0.33%
  ERYTHROCYTE COUNT: 5.17 x10E6/uL
  HEMATOCRIT: 33.43%
  HEMOGLOBIN: 12.55 G/DL
  LEUKOCYTE COUNT: 11.83 x10E3/uL
  LYMPHOCYTE: 86.5%
  MEAN CORPUSCULAR HEMOGLOBIN: 24.35 pg
  MEAN CORPUSCULAR HEMOGLOBIN CONCENTRATION: 37.57 G/DL
  MEAN CORPUSCULAR VOLUME: 64.8 fL
  MONOCYTE: 2.67%
  NEUTROPHIL: 10.5%
  NUCLEATED RED BLOOD CELLS: 0.17 /100WBC
  PLATELET COUNT: 1026.17 x10E3/uL
  ALANINE AMINOTRANSFERASE: 52.67 u/L
  ALBUMIN: 4.17 G/DL
  ALKALINE PHOSPHATASE: 331 u/L
  ASPARTATE AMINOTRANSFERASE: 92.33 u/L
  BLOOD UREA NITROGEN: 15.33 mg/dL
  CARBON DIOXIDE: 26.17 mmol/L
  CHLORIDE: 103.17 MEQ/L
  CHOLESTEROL: 73.67 mg/dL
  CREATINE PHOSPHOKINASE: 472.83 u/L
  CREATININE: 0.29 mg/dL
  GLUCOSE: 178.5 mg/dL
  LACTATE DEHYDROGENASE: 244.83 u/L
  LIPASE: 10.67 u/L
  PHOSPHORUS: 12.45 mg/dL
  POTASSIUM: 6.35 MEQ/L
  SODIUM: 144.27 MEQ/L
  TOTAL BILIRUBIN: 0.13 mg/dL
  TOTAL PROTEIN: 5.77 G/DL
  URIC ACID: 2.08 mg/dL
[2]
  ABSOLUTE BASOPHIL: 0 CELLS/uL
  ABSOLUTE EOSINOPHIL: 23.5 CELLS/uL
  ABSOLUTE LYMPHOCYTE: 12797.33 CELLS/uL
  ABSOLUTE MONOCYTE: 465.5 CELLS/uL
  ABSOLUTE SEGMENTED NEUTROPHIL: 1313.67 CELLS/uL
  BASOPHIL: 0%
  EOSINOPHIL: 0.17%
  ERYTHROCYTE COUNT: 5.76 x10E6/uL
  HEMATOCRIT: 36.72%
  HEMOGLOBIN: 13.72 G/DL
  LEUKOCYTE COUNT: 14.6 x10E3/uL
  LYMPHOCYTE: 87.5%
  MEAN CORPUSCULAR HEMOGLOBIN: 23.8 pg
  MEAN CORPUSCULAR HEMOGLOBIN CONCENTRATION: 37.35 G/DL
  MEAN CORPUSCULAR VOLUME: 63.72 fL
  MONOCYTE: 3.17%
  NEUTROPHIL: 9.17%
  NUCLEATED RED BLOOD CELLS: 0.33 /100WBC
  PLATELET COUNT: 1270.67 x10E3/uL
  ALANINE AMINOTRANSFERASE: 50.5 u/L
  ALBUMIN: 4.32 G/DL
  ALKALINE PHOSPHATASE: 339.67 u/L
  ASPARTATE AMINOTRANSFERASE: 88 u/L
  BLOOD UREA NITROGEN: 17 mg/dL
  CARBON DIOXIDE: 25 mmol/L
  CHLORIDE: 103.83 MEQ/L
  CHOLESTEROL: 71.33 mg/dL
  CREATINE PHOSPHOKINASE: 281.83 u/L
  CREATININE: 0.26 mg/dL
  GLUCOSE: 161.67 mg/dL
  LACTATE DEHYDROGENASE: 191.17 u/L
  LIPASE: 10.17 u/L
  PHOSPHORUS: 11.72 mg/dL
  POTASSIUM: 6.76 MEQ/L
  SODIUM: 145.17 MEQ/L
  TOTAL BILIRUBIN: 0.2 mg/dL
  TOTAL PROTEIN: 6.15 G/DL
  URIC ACID: 2 mg/dL
[3]
  ABSOLUTE BASOPHIL: 0 CELLS/uL
  ABSOLUTE EOSINOPHIL: 0 CELLS/uL
  ABSOLUTE LYMPHOCYTE: 11521.67 CELLS/uL
  ABSOLUTE MONOCYTE: 217.67 CELLS/uL
  ABSOLUTE SEGMENTED NEUTROPHIL: 794 CELLS/uL
  BASOPHIL: 0%
  EOSINOPHIL: 0%
  ERYTHROCYTE COUNT: 5.92 x10E6/uL
  HEMATOCRIT: 38.23%
  HEMOGLOBIN: 14.33 G/DL
  LEUKOCYTE COUNT: 12.53 x10E3/uL
  LYMPHOCYTE: 92.33%
  MEAN CORPUSCULAR HEMOGLOBIN: 24.2 pg
  MEAN CORPUSCULAR HEMOGLOBIN CONCENTRATION: 37.47 G/DL
  MEAN CORPUSCULAR VOLUME: 64.53 fL
  MONOCYTE: 1.67%
  NEUTROPHIL: 6%
  NUCLEATED RED BLOOD CELLS: 0.33 /100WBC
  PLATELET COUNT: 1202 x10E3/uL
  ALANINE AMINOTRANSFERASE: 47.67 u/L
  ALBUMIN: 4.43 G/DL
  ALKALINE PHOSPHATASE: 308.33 u/L
  ASPARTATE AMINOTRANSFERASE: 89 u/L
  BLOOD UREA NITROGEN: 17.67 mg/dL
  CARBON DIOXIDE: 25.67 mmol/L
  CHLORIDE: 103.67 MEQ/L
  CHOLESTEROL: 87.33 mg/dL
  CREATINE PHOSPHOKINASE: 322 u/L
  CREATININE: 0.26 mg/dL
  GLUCOSE: 158 mg/dL
  LACTATE DEHYDROGENASE: 344 u/L
  LIPASE: 11.67 u/L
  PHOSPHORUS: 13.47 mg/dL
  POTASSIUM: 6.73 MEQ/L
  SODIUM: 147.7 MEQ/L
  TOTAL BILIRUBIN: 0.2 mg/dL
  TOTAL PROTEIN: 6.2 G/DL
  URIC ACID: 2.6 mg/dL
